Tests used:
[1] = molecular target: T1, CDK4/cyclin D3 (Homo sapiens, UniProt P11802); experiment: In vitro biochemical kinase activity assay for CDK4/cyclin D3 (HTRF)
T1 construct: purchased Carna
Outline: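 HTRF kinase reaction: 4.9 nM CDK4/cyclin D3, 1 mM (or 80 µM) ATP and 0.3 µM Rb-biotin substrate, 90 min at 30°C in buffer with 50 mM MgCl2 and 1 mM DTT.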

[2] = molecular target: T2, CDK6/cyclin D3 (Homo sapiens, UniProt Q00534); experiment: In vitro biochemical kinase activity assay for CDK6/cyclin D3 (HTRF)
T2 construct: purchased Carna
T2 sequence (Q00534 whole entry): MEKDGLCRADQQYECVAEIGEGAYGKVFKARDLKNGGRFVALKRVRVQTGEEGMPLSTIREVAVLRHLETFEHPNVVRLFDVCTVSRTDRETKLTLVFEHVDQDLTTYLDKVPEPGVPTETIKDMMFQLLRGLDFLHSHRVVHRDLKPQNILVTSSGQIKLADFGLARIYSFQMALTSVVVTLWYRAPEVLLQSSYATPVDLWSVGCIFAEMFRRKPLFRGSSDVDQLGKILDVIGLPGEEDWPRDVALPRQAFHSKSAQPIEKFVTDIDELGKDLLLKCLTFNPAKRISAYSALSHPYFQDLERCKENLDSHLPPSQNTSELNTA
T2 sequence (P30281 whole entry partner): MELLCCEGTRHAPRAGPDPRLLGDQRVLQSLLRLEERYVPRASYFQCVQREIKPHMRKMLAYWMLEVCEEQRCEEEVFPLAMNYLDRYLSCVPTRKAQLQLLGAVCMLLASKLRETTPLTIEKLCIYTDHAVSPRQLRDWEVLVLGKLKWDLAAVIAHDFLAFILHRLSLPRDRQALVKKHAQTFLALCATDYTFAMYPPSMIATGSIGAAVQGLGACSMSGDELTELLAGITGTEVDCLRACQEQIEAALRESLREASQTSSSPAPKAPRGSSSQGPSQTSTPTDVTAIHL
Outline: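 HTRF assay: 0.02 nM CDK6/cyclin D3 incubated with 1 mM (or 100 µM) ATP and 0.3 µM Rb-biotin substrate at 30°C for 60 min in kinase buffer with 5 mM MgCl2 and 1 mM DTT.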

[3] = data marked with *: 1 mM ATP in Step 1

T1 sequence (P11802 whole entry): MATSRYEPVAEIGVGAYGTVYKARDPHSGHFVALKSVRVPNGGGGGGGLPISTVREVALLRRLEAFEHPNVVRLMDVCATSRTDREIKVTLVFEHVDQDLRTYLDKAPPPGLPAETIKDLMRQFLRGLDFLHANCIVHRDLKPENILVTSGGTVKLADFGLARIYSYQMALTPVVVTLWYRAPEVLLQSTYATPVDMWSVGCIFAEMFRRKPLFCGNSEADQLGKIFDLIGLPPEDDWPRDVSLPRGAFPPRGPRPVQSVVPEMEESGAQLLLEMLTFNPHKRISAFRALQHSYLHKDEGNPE
T1 sequence (P30281 whole entry partner): as the sequence (P30281 whole entry partner) above

| IC50 ([1]; unmarked data: 80 µM ATP in Step 1) [nM] | IC50 ([2]; unmarked data: 100 µM ATP in Step 1) [nM] | IC50 [1, 3] [nM] | IC50 [2, 3] [nM] | Structure (SMILES) |
| --- | --- | --- | --- | --- |
| – | – | 3.17 | 53 | [2H]C([2H])(c1ncc(C#Cc2nc(Nc3ccc(CN4CCN(CC)CC4)cn3)ncc2Cl)n1C(C)C)N1CCC[C@H](O)C1 [Example 137, (S)-1-((5-((5-chloro-2-((5-((4-ethylpiperazin-1-yl)methyl)pyridin-2-yl)amino)pyrimidin-4-yl)ethynyl)-1-isopropyl-1H-imidazol-2-yl)methyl-d2)piperidin-3-ol] |
| – | – | 2.65 | 12 | CCN1CC2(C1)CN(c1ccc(Nc3ncc(Cl)c(C#Cc4cnc(C)n4C(C)C)n3)nc1)C2 [Example 80, 5-chloro-N-(5-(6-ethyl-2,6-diazaspiro[3.3]heptan-2-yl)pyridin-2-yl)-4-((1-isopropyl-2-methyl-1H-imidazol-5-yl)ethynyl)pyrimidin-2-amine] |
| – | – | 2.52 | 6.31 | CCN1CC2(C1)CN(c1ccc(Nc3ncc(Cl)c(C#Cc4cnc(C(C)(C)O)n4C(C)C)n3)nc1)C2 [Example 71, 2-(5-((5-chloro-2-((5-(6-ethyl-2,6-diazaspiro[3.3]heptan-2-yl)pyridin-2-yl)amino)pyrimidin-4-yl)ethynyl)-1-isopropyl-1H-imidazol-2-yl)propan-2-ol] |
| – | – | 7.99 | 28.4 | CC(C)n1c(C#Cc2nc(Nc3ccc(C(=O)N4CCCC4)cn3)ncc2Cl)cnc1C(C)(C)O [Example 114, (6-((5-chloro-4-((2-(2-hydroxypropan-2-yl)-1-isopropyl-1H-imidazol-5-yl)ethynyl)pyrimidin-2-yl)amino)pyridin-3-yl)(pyrrolidin-1-yl)methanone] |

The remaining lines, values behind:

| Structure (SMILES) | IC50 ([1]; unmarked data: 80 µM ATP in Step 1) [nM] | IC50 ([2]; unmarked data: 100 µM ATP in Step 1) [nM] | IC50 [1, 3] [nM] | IC50 [2, 3] [nM] |
| --- | --- | --- | --- | --- |
| CC(C)c1nn(C)cc1C#Cc1nc(N[C@@H]2CCOC[C@H]2O)ncc1Cl [Example 54, (3 S,4R)-4-((5-chloro-4-((3-isopropyl-1-methyl-1H-pyrazol-4-yl)ethynyl)pyrimidin-2-yl)amino)tetrahydro-2H-pyran-3-ol] | 59 | 164 | – | – |
| CC(C)n1c(C#Cc2nc(N[C@@H]3CCOC[C@H]3O)ncc2Cl)cnc1C1CC1 [Example 120, (3 S,4R)-4-((5-chloro-4-((2-cyclopropyl-1-isopropyl-1H-imidazol-5-yl)ethynyl)pyrimidin-2-yl)amino)tetrahydro-2H-pyran-3-ol] | – | – | 26.1 | 130 |
| CCN1CC2(C1)CN(c1ccc(Nc3ncc(Cl)c(C#Cc4cnc(CN5[C@@H](C)COC[C@@H]5C)n4C(C)C)n3)nc1)C2 [Example 104, 5-chloro-4-((2-(((3 S,5 S)-3,5-dimethylmorpholino)methyl)-1-isopropyl-1H-imidazol-5-yl)ethynyl)-N-(5-(6-ethyl-2,6-diazaspiro[3.3]heptan-2-yl)pyridin-2-yl)pyrimidin-2-amine] | – | – | 5.57 | 45.2 |
| CC1(C)OCCn2ncc(C#Cc3nc(N[C@@H]4CCOC[C@H]4O)ncc3Cl)c21 [Example 111, (3 S,4R)-4-((5-chloro-4-((4,4-dimethyl-6,7-dihydro-4H-pyrazolo[5,1-c][1,4]oxazin-3-yl)ethynyl)pyrimidin-2-yl)amino)tetrahydro-2H-pyran-3-ol] | – | – | 47.1 | 335 |
| CC(C)n1c(C#Cc2nc(N[C@@H]3CCOC[C@H]3O)ncc2Cl)cnc1C1(O)CC1 [Example 121, (3 S,4R)-4-((5-chloro-4-((2-(1-hydroxycyclopropyl)-1-isopropyl-1H-imidazol-5-yl)ethynyl)pyrimidin-2-yl)amino)tetrahydro-2H-pyran-3-ol] | – | – | 9.24 | 75.9 |
| CC(C)n1c(C#Cc2nc(N[C@@H]3CCOC[C@H]3O)ncc2Cl)cnc1C1CCO1 (stereo partly drawn) [Example 112, (3S,4R)-4-((5-chloro-4-((1-isopropyl-2-(oxetan-2-yl)-1H-imidazol-5-yl)ethynyl)pyrimidin-2-yl)amino)tetrahydro-2H-pyran-3-ol] | – | – | 179 | 1240 |
| CC(C)n1c(C#Cc2nc(N[C@@H]3CCOC[C@H]3O)ncc2F)cnc1C(C)(C)O [Example 95, (3 S,4R)-4-((5-fluoro-4-((2-(2-hydroxypropan-2-yl)-1-isopropyl-1H-imidazol-5-yl)ethynyl)pyrimidin-2-yl)amino)tetrahydro-2H-pyran-3-ol] | – | – | 117 | 829 |

Reference: EP4782445A1, “CDK KINASE INHIBITOR AND USE THEREOF” (Abbisko Therapeutics Co., Ltd., priority 2023, dated 2025)
